Measurements taken from patent publication US20260284016A1, “COMBINATIONS AND METHODS FOR ENHANCING CHECKPOINT INHIBITOR THERAPIES IN CANCER TREATMENT” (PURDUE RESEARCH FOUNDATION, priority 2004, published 2026).

Tests used:
[1] = Stability during incubation in culture media; type: physicochemical; conditions: 37° C. in the culture media, 48 hours
Procedure: Indeed, Compound 1B retained the original structure after 48 hours incubation.

[2] = test system: M2-induced THP-1 macrophages; test: Reprogramming of M2-polarized THP-1 macrophages, marker mRNA by qPCR; type: cell-based, human
Procedure: THP-1 cells were seeded into 96-well plates at a density of 60,000 cells/well. Cells were differentiated into unpolarized macrophages by 48 hours incubation with 200 nM PMA followed by 24 hours incubation in fresh RPMI medium. […] Cultures were maintained at 37° C., in a humidified 5% CO2 incubator.
Total RNA was isolated from 1×10^5-2×10^5 macrophages using a Quick-RNA™ MicroPrep kit (Zymo Research, Irvine, CA) according to the manufacturer-recommended protocol. The RNA samples were then reverse-transcribed into cDNA using high-capacity cDNA reverse transcription kits (Applied Biosystems, Foster City, CA; #4368814), qPCR analyses were performed using the iTaq™ Universal SYBR Green SuperMix (Bio-Rad Laboratories GmbH, Hercules, CA; #1725121), iCycler thermocycler, and iCycler iQ 3.0 software (Bio-Rad Laboratories GmbH, Hercules, CA) to track the expression of markers characteristic of macrophage polarization states, IL-6, CXCL10, IFNα, IFN-γ and CD86 were used as markers for an M1 phenotype, while CCL18. CD206, CD163 and Arg1 were employed as markers for the M2 phenotype, IL-1β, PDGFβ, MMP9 and TIMP 3 were measured as indicators of an anti-inflammatory phenotype. IRAK-4 was used as an indicator of TLR7 stimulation. To control for specificity of the amplification products, a melting curve analysis was performed. […] Each sample was analyzed independently in triplicate for each marker.
In both data sets, the cells were harvested for gene analysis by qPCR.
Primarily, human monocytic (THP-1) cells were induced to the M2-like phenotype using the methods and materials previously described. In particular, THP-1 cells were seeded into 96-well plates at a density of 60,000 cells/well. Cells were differentiated into unpolarized macrophages by 48 h incubation with 200 nM PMA followed by 24 hours incubation in fresh RPMI medium. The resulting macrophages were polarized to an M2-like phenotype by incubation with […] IL-4, 20 ng/ml […], and 5 ng/mL IL-6 for 48h. Cultures were maintained at 37° C. in a humidified 5% CO2 incubator.
In addition to the nonconjugated TLR7 agonist, conjugated compounds of the present disclosure were likewise evaluated. Human THP-1 cells were induced to macrophages having the M2-like phenotype per the methods set forth herein (e.g., using 20 ng/mL IL-4, 20 ng/mL IL-13, 5 ng/mL IL-6), then reprogrammed with different nM concentrations of various compounds of the present disclosure for 2 hours; namely, a nonconjugated (free drug) TLR7 agonist compound having formula I and/or II (data shown collectively as Compound 3A), a folate-conjugated TLR7 agonist compound having formula XV (having a releasable linker) (e.g., Compound 3B), a folate-conjugated TLR7 agonist compound having formula XVII (having a non-releasable linker) (e.g., Compound 3C), and a folate-conjugated TLR7 agonist compound having formula XVI (having a non-releasable linker) (e.g., Compound 3D). The cells were subsequently harvested for gene analysis by qPCR and the relative expression of CCL18 (FIG. 14A), CD206 (FIG. 14B), and IL-1β (FIG. 14C) analyzed.

BM-induced mice = test system: BM-induced mice
Procedure: Studies were also performed to determine if macrophages in pulmonary fibrotic lungs might be specifically targeted with folate-linked drugs in vivo. […] (The BM model is widely regarded to be helpful in terms of enabling mechanistic investigations relevant to fibrogenesis in an in vivo context.)
More specifically, eight-week-old C57BL6 male mice from Charles River (average weight 22 g to 25 g) were housed under pathogen-free conditions at room temperature (22° C.) under a 12 hours light-dark cycle. Mice were placed on a folate deficient chow (Envigo Teklad Global Rat Food Pellets) for 1 week prior to the BM or PBS instillation. Fresh water and folate-deficient diet were freely available. All animal procedures were approved by the Purdue Animal Care and Use Committee in accordance with National Institute of Health guidelines.
Thereafter, the mice were anesthetized with ketamine/xylazine and the necks of the mice were shaved using hair remover lotion and then sterilized with 70% alcohol. A small incision was made on the neck to visualize the trachea. Mice were positioned at a 75-degree angle and injected intratracheally with 100 μL sterile PBS or BM (Cayman Chemicals, Ann Arbor, MI; #13877) dissolved in PBS (0.75 mg/kg) using a 1 cc syringe with 26 G needle. Body weights were monitored every other day throughout the experiment.
Lobes of the right lung collected above were weighed, placed in a pressure-tight vial (Supelco Inc., Bellefonte, PA; #27003), and hydrolyzed with 6N HCl (10 ml/g, v/w) in a sand bath at 120° C., for 3.5 hours. The hydrolyzed solution was cooled at 4° C., for 15 min and transferred to a 1.5 ml Eppendorf tube prior to centrifugation at 12,000 rcf for 15 min at 4° C. Supernatant was carefully collected, aliquoted and used for hydroxyproline (HYP) analysis.
For the subsequent HYP analysis, 10 μl of sample was transferred into a 96-well plate and neutralized with 10 μl of 5.3 M sodium hydroxide solution. Isopropanol ([…]) was then added to each well followed by 20 μl of oxidation buffer and the mixture was incubated on a shaker at room temperature for 5 min. Analytical reagent (260 μl) was added, and the plate was incubated on a shaker at room temperature for 30 seconds and incubated immediately at 60° C., for 25 min. The absorbance was measured at 560 nm (A560) within 15 min. All reagents were prepared according to a previously reported protocol.
For histological analysis of the lung sections, fixed lungs (see above) were embedded in paraffin, sectioned and stained with hematoxylin-eosin (H&E), Masson's trichrome or F3 (anti-mouse FRβ antibody). Tissue sections were examined in a blinded manner by a licensed pathologist. More than 90×10^6 cells were quantified per section using Aperio-Image Scope (Leica Biosystems, Wetzlar, DE).
For this, BM-treated mice were intravenously injected every other day beginning on day 10 with either vehicle (3% DMSO in PBS) or Compound 1B (see FIG. 8A). […] In BM-induced experimental pulmonary fibrosis in mice, inflammation is known to persist for about 9-10 days after BM installation. Because, inflammation to fibrosis switch happens in this model approximately day 9 to day 14, and anti-inflammatory markers start appearing at about day 10, dosing began on day 10 (FIG. 8A).
Two doses were given every other day till day 21. The individual doses on a day are separated by 6 hours to prevent any “tolerance” to TLR agonists. Mice were then sacrificed on day 21 and subjected immediately to bronchoalveolar lavage followed by resection of the lungs for immunohistochemistry and quantitation of collagen and hydroxyproline.

[3] = 2 hours with drug, then drug-free medium

CCCCc1nc2c(N)nc3ccccc3c2n1CC(C)(C)OC(=O)OCCSSCC(NC(=O)CCC(NC(=O)c1ccc(NCc2cnc3nc(N)[nH]c(=O)c3n2)cc1)C(=O)O)C(=O)O (stereo not shown) [Compound 1B]
stability during incubation [1]: remained stable
anti-inflammatory/M2-type markers (CCL18, CD206, IL-1β, PDGFβ mRNA) ([2]; 2 hours incubation, harvested at once or after further 46 hours): downregulated anti-inflammatory/M2-type markers of macrophages more than Compound 1A
TNFα induction [2, 3]: dramatically improved
potency in reprogramming [2, 3]: superior potency relative to Compound 1A
order of efficacy on lung hydroxyproline content (BM-induced mice; 0, 1, 3, or 10 nmol/mouse, day 21): 10 nmol/mouse>3 nmol/mouse>1 nmol/mouse>0 nmol/mouse
lung histology with rising dose (BM-induced mice; 0, 1, 3, or 10 nmoles): lung histology improved
weight loss across doses (BM-induced mice; 0, 1, 3, or 10 nmoles every other day from day 10): no difference in weight loss
response in lung sections (DAPI, anti-F4/80, anti-CD206 staining) (BM-induced mice; healthy and fibrotic lungs): robust anti-fibrotic and proinflammatory response
collagen stain, Masson's trichrome (BM-induced mice; tail vein injection, treatment from day 10): strongly suppressed
lung architecture, H&E staining (BM-induced mice; treatment from day 10): resembles that of healthy mice
